The test system of experiment [1] is antigen-induced airway hyperresponsiveness to methacholine. In words: Allergen-induced airway hyperresponsiveness (AHR) in mouse model of asthma. The experiment is classed as in vivo. As to conditions: 15 or 30 mg/kg s.c., 1 h before and 1 h after each ovalbumin challenge. How it is done:
Inhibition of allergen-induced Airway hyperresponsiveness (AHR) and inflammation in mouse model of asthma; Immunization, challenge and drug treatment: Female mice, as specified above, were immunized intraperitoneally (i.p.) with 10 μg ovalbumin mixed with 0.2 ml of aluminum hydroxide gel (Alu-Gel-S; SERVA Electrophoresis GmbH, Heidelberg, Germany), on day 0 and repeated on day 7. On day 14, after the start of immunization, the animals were challenged intra-nasally, once a day for 4 consecutive days, with 50 μl of 0.06% ovalbumin solution in PBS. Control animals were similarly immunized with PBS and challenged intra-nasally with 50 μl PBS. All intra-nasal administrations were done following light anesthesia with halothane.
The animals were divided into 5 groups A-E (10-14 animals per group). […]
Different treatment groups were used for the AHR and cytology/histology studies. Twenty four hours after the last intra-nasal challenge/drug treatment, lung function was measured in some animals while in others bronchoalveolar lavage (BAL), cytology and histology were performed after they were sacrificed with overdose of halothane.
Measurement of AHR: AHR was measured in individual mice using a Finepoint Series RC site (Buxco Research Systems, Wilmington, N.C., USA), according to the manufacturer's guidelines. […]

Experiment [2] concerns the target T1, recombinant human 5-LO enzyme (Homo sapiens, UniProt P09917).
T1 sequence (P09917 1-674): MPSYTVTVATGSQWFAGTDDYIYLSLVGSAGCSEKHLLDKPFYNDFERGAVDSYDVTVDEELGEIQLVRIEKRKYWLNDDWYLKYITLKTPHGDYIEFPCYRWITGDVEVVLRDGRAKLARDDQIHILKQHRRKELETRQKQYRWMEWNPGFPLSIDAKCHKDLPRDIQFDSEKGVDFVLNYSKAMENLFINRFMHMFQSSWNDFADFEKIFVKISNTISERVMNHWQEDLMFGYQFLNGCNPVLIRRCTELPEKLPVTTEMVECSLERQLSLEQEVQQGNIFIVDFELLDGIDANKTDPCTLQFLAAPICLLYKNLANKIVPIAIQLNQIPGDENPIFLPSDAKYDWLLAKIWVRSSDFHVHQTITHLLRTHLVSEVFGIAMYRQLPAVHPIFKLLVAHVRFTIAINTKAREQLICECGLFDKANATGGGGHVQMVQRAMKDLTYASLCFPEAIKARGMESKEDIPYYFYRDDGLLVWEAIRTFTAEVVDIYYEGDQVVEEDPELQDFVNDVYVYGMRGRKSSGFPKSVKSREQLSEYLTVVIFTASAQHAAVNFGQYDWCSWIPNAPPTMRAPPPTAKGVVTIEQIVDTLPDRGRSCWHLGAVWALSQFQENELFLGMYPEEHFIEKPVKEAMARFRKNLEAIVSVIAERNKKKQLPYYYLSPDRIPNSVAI
Nature of the experiment: Direct 5-LO inhibitory activity in a cell-free assay (H2DCF-DA fluorescence). Particulars: cell-free, recombinant human 5-LO; read-out: Inhibitory Activity IC50, Human recomb. 5-LO. The experiment is classed as biochemical. How it is done:
H2DCF-DA (60 μM) was first pre-cleaved by incubating with 450 mU/ml recombinant human 5-LO enzyme in Tris buffer (containing 50 mM Tris, pH=7.5, 2 mM EDTA, 2 mM CaCl2), 1 mM dithiothreitol (DTT) and 0.6 U/ml glutathione peroxidase) for 10 min at room temperature. […] After 10 min incubation at room temperature, the reaction was started with the addition of 50 μl of the substrate solution (Tris buffer containing 20 μM ATP and 20 μM arachidonic acid). After a further 20 min, the reaction was terminated with 100 μl acetonitrile. Fluorescence was read at 500 nm excitation and 520 emission, with Novostar® microplate reader (BMG Labtech, Offenburg, Germany). Appropriate controls, including 100 μM nordihydroguaiaretic acid (NDGA), were included to isolate only the 5-LO-attributable, NDGA-inhibitable RFU values.

Experiment [3] deals with LTC4 release from IgE/antigen-activated mouse mast cells (BMMC). Nature of the experiment: Inhibition of LTC4 release in allergen/IgE-activated bone marrow-derived mouse mast cells. The experiment is classed as cell-based. As to conditions: BMMC, anti-DNP IgE sensitized, DNP-BSA 30 ng/ml, 30 min. The text has this: Inhibition of LTC4 release and degranulation in allergen/IgE-activated bone marrow-derived mouse mast cells (BMMC): Bone marrow-derived mast cells (BMMC) were generated from pathogen-free 5-7 week old male Balb/c mice according to the method of Davis et al., [2004] (Davis, B. J., et al., (2004), Journal of Immunology, 173: 6914-6920). Essentially, bone marrow cells were obtained by flushing of the femoral bone marrow and cultured in RPMI 1640 medium supplemented with 10% FBS, 100 U/ml penicillin, and 100 μg/ml streptomycin, 25 mM HEPES, 1.0 mM sodium pyruvate, 0.1 mM nonessential amino acids, 0.0035% 2-mercaptoethanol, and 30 ng/ml mouse recombinant IL-3, with culture medium replaced every two days. Cells were used after 4-8 weeks of culture, by which time at least 97% of the cells would have differentiated into mast cells.
The generated BMMCs were seeded at 5×10^4 cells/well in a 96-well flat-bottom culture plate and passively sensitized overnight with 0.5 μg/ml anti-DNP monoclonal IgE antibody (clone SPE-7, Sigma-Aldrich, St. Louis, Mo., USA). The cells were then washed twice to remove any unbound antibody and subsequently re-suspended in reaction buffer (135 mM NaCl, 5 mM KCl, 1.8 mM CaCl2), 1 mM MgCl2, 5.6 mM glucose, 0.05% BSA and 20 mM HEPES, pH 7.4). They were then pre-incubated with the test compounds (0.01-30 μM) or the solvent (0.05% DMSO) for 15 min before being stimulated with the specific antigen, DNP-BSA (30 ng/ml). After 30 min incubation at 37° C., the amount of LTC4 released into the supernatant (as index of 5-LO activity) was determined by ELISA as described below.
Assay of released leukotrienes/β-hexoseaminidase enzyme: Appropriately diluted supernatants were assayed for the released LTs (LTB4 and LTC4), by the enzyme immunoassay (EIA) method using assay kits supplied by R&D Systems (Minneapolis, Minn., USA) and following the manufacturer's instructions.

pIC50: −log10 of the molar value.

A word on the pIC50: it is the negative decadic logarithm of the IC50, by convention in mol/L. As to `CCCCCCCC(=O)N(O)C[C@H]1CN(c2ccc(N3CCOCC3)c(F)c2)C(=O)O1` [PH-251, (R)—N-((3-(3-fluoro-4-morpholinophenyl)-2-oxooxazolidin-5-yl)methyl)-N-hydroxyoctanamide], in experiment [1], the “Development of antigen-induced AHR to inhaled methacholine (FIGS. 4A-4B)” value is “almost completely abolished the development of AHR”. Moreover, the pIC50 in experiment [2] is 5.80. In addition, the “Inhibition of generation of LTC4 from IgE/allergen-activated mast cells (FIG. 2A)” value in experiment [3] is given as “equally effective in inhibiting the generation of LTC4”.

(Values after patent publication US11608320B2, “Oxazolidinone hydroxamic acid derivatives” (KUWAIT UNIVERSITY, priority 2020, dated 2023).)
